Patent publication US20090247543A1, “GATIFLOXACIN-CONTAINING AQUEOUS LIQUID PREPARATION” (Kyorin Pharmaceutical Co., Ltd., priority 2008, published 2009)
Values after ≈ are worked out from the molar mass of the structure shown.

System: Enterococcus faecalis (opthalmologic clinical isolated strain A-2-7)
Experiment: Minimal inhibitory concentration used as indicator for T>MIC
Format: cell-based

MIC: 0.39 µg/mL (≈ 1.04 µM)
SMILES: COc1c(N2CCNC(C)C2)c(F)cc2c(=O)c(C(=O)O)cn(C3CC3)c12 (racemic) [Gatifloxacin, (±)-1-cyclopropyl-6-fluoro-1,4-dihydro-8-methoxy-7-(3-methyl-1-piperazinyl)-4-oxo-3-quinolinecarboxylic acid]
